Structures are written as SMILES. Several values for one entry are separate records, joined by “and”; a condition that tells them apart may be missing. Identical values can stand only once.

One data set concerns the target human TRPM8 (Homo sapiens, UniProt Q7Z2W7). Nature of the data set: FLIPR intracellular calcium flux (Fluo-4) in HEK cells stably transfected with human TRPM8. As to conditions: for Average Fluorescence (n = 3): Fluo-4; for % Change from G-180 value: pre-treatment with 100 uM test compound + 6.25 uM G-180 vs 6.25 uM G-180 alone, calcium fluorescence. In general terms: Calcium assays in cells follow changes in intracellular calcium, usually with a dye or a luminescent sensor.

For data set [1] the following is noted: concentration where the cooling effect could be clearly recognized; cited from earlier work.
A further data set concerns panelists. Nature of the data set: Sensory evaluation of cooling sensation after brushing with coolant dentifrice followed by aqueous rinse with or without calcium. The class given is in vivo, human. On the set-up: key to Cooling Sensation Score: 0 = no cooling, 60 = intense cooling; 7.5 = definite cooling. To be noted: for Cooling Sensation Score: 0-60 scale. Here is the method: Sensory evaluation studies of coolant activity were conducted using a methodology patterned after the techniques described in M. C. Meilgaard, et al., Sensory Evaluation Techniques, 4th Ed. (2007). In one study, a panel of 11 trained sensory experts evaluated cooling sensation experienced after brushing with a dentifrice containing coolant(s) followed by rinsing with an aqueous rinse containing a calcium ion source. Panelists brushed teeth with 1.5 grams of a test dentifrice (containing coolant) or control (no coolant) and then expectorated. After brush expectoration, panelists evaluated cooling intensity, assigning a number between 0 (no cooling) to 60 (intense cooling). Panelists then rinsed mouth with 15 ml. of an aqueous rinse (with or without calcium) and expectorated. After rinse expectoration, panelists evaluated cooling intensity according to the same 0 to 60 scale. Evaluations were conducted at 5, 15, 30, 45, 60 minute, etc. time points. At each evaluation, panelists were instructed to breathe in through pursed lips and evaluate overall cooling sensation. In this test, a numerical score of 7.5 indicates meaningful or definite cooling.

Setting [2] is: pre-treatment with 100 uM test compound for 30 minutes, then 6.25 uM G-180, HEK cells with human TRPM8.

Chain of human TRPM8 (Q7Z2W7 whole entry): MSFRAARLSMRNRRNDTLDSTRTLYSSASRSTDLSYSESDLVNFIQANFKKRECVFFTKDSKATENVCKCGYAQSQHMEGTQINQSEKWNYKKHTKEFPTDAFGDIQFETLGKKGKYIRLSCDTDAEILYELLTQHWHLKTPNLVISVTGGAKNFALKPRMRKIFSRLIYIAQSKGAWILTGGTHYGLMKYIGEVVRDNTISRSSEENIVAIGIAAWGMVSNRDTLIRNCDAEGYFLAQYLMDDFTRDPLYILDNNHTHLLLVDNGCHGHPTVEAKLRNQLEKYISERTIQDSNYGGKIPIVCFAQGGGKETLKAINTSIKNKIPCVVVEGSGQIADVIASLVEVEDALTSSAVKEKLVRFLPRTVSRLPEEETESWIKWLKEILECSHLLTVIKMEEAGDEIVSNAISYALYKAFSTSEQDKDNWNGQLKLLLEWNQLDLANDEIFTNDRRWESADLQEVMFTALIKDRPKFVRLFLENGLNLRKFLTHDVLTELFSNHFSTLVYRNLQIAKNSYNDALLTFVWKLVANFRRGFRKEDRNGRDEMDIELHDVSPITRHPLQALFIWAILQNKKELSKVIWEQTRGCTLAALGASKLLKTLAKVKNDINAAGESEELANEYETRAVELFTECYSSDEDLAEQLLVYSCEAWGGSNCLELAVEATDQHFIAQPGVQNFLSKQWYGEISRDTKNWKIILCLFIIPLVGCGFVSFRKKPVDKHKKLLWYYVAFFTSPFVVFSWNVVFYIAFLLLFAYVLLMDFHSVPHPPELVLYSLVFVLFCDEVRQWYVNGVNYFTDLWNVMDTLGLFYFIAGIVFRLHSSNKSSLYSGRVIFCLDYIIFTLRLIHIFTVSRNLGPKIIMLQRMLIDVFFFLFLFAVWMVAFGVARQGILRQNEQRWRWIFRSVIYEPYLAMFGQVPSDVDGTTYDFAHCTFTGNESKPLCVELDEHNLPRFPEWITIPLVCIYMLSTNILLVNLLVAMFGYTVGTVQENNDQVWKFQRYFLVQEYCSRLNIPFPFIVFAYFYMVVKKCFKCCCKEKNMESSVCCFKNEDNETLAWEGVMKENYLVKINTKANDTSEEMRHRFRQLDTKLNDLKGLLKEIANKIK

For the compound `O=P(O)(O)O[C@H]1[C@H](OP(=O)(O)O)[C@@H](OP(=O)(O)O)[C@H](OP(=O)(O)O)[C@@H](OP(=O)(O)O)[C@H]1OP(=O)(O)O` [Phytic acid, myo-inositol 1,2,3,4,5,6-hexakis (dihydrogen phosphate)], the “Average Fluorescence (n = 3)” value on human TRPM8 (100 uM test compound alone (direct effect on TRPM8), HEK cells with human TRPM8) is 129.38; at human TRPM8 (setting [2]), 18382.62; at human TRPM8 (pre-treatment with 100 uM test compound for 30 minutes, then 6.25 uM G-180, HEK cells with human TRPM8, listed as Phytic Acid), 21178.86. Besides, the entries for the “% Change from G-180 value” at human TRPM8, at human TRPM8 (listed as Phytic Acid) and at human TRPM8 (listed as phytic acid) were 23.36%, 21.20% and 23.36%, respectively. For the same compound, the “Modulation of the G-180 activity at TRPM8” value on human TRPM8 (separate experiments using the same protocol, 100 uM + 6.25 uM G-180) is on record as “positive modulation was confirmed”.

Consider `CC(C)[C@H]1CC[C@H](C)C[C@H]1O` [l-neomenthol], for which the Cooling threshold result in data set [1] was “about 3,000 ppb”.

In the case of `CC1CCC(C(C)C)C(C(=O)Nc2ccc(CC#N)cc2)C1` (stereo not shown) [Composition G-180, N-(4-cyanomethylphenyl)-ρ-menthanecarboxamide], on human TRPM8 (6.25 uM G-180 alone, HEK cells with human TRPM8), the “Average Fluorescence (n = 3)” value was 14901.88 and 17511.73 and 17474.37. Besides, the “Activation of the TRPM8 receptor (calcium ion flux vs. control)” value on human TRPM8 (6.25 uM, HEK cells with human TRPM8) is recorded as “activated the TRPM8 receptor”. Besides, the “Cooling Sensation Score” value in the data set with panelists (75 ppm coolant in paste, rinse Ca+2 0 ppm, 0 min.) is recorded as 21.1; in the data set with panelists (75 ppm coolant in paste, rinse Ca+2 0 ppm, 5 min.), 23.7; with panelists (75 ppm coolant in paste, rinse Ca+2 0 ppm, 15 min.) it was 22.9; in the data set with panelists (75 ppm coolant in paste, rinse Ca+2 0 ppm, 30 min.), 15.0; with panelists (75 ppm coolant in paste, rinse Ca+2 0 ppm, 45 min.), 11.0; in the data set with panelists (75 ppm coolant in paste, rinse Ca+2 0 ppm, 60 min.), 5.8. Also, the “Cooling Sensation Score” value in the data set with panelists (75 ppm coolant in paste, rinse Ca+2 271 ppm, 0 min.) was 17.5; with panelists (75 ppm coolant in paste, rinse Ca+2 271 ppm, 5 min.) it was 18.3; with panelists (75 ppm coolant in paste, rinse Ca+2 271 ppm, 15 min.), 20.7; in the data set with panelists (75 ppm coolant in paste, rinse Ca+2 271 ppm, 30 min.) it was 16.8; in the data set on panelists (75 ppm coolant in paste, rinse Ca+2 271 ppm, 45 min.), 13.3; in the data set with panelists (75 ppm coolant in paste, rinse Ca+2 271 ppm, 60 min.), 8.4. Further, the “Cooling Sensation Score” value in the data set with panelists (75 ppm coolant in paste, rinse Ca+2 542 ppm, 0 min.) is on record as 18.8; in the data set with panelists (75 ppm coolant in paste, rinse Ca+2 542 ppm, 5 min.) it was 25.0; in the data set on panelists (75 ppm coolant in paste, rinse Ca+2 542 ppm, 15 min.), 29.2; with panelists (75 ppm coolant in paste, rinse Ca+2 542 ppm, 30 min.), 24.4; in the data set on panelists (75 ppm coolant in paste, rinse Ca+2 542 ppm, 45 min.), 18.6; in the data set with panelists (75 ppm coolant in paste, rinse Ca+2 542 ppm, 60 min.), 14.1. Besides, the “Cooling Sensation Score” value was 16.7 in the data set on panelists (150 ppm coolant in paste, rinse Ca+2 0 ppm, 0 min.); 16.0 in the data set with panelists (150 ppm coolant in paste, rinse Ca+2 0 ppm, 5 min.); 25.7 in the data set on panelists (150 ppm coolant in paste, rinse Ca+2 0 ppm, 15 min.); 19.5 in the data set on panelists (150 ppm coolant in paste, rinse Ca+2 0 ppm, 30 min.); 10.0 in the data set with panelists (150 ppm coolant in paste, rinse Ca+2 0 ppm, 45 min.); 1.5 with panelists (150 ppm coolant in paste, rinse Ca+2 0 ppm, 60 min.). Moreover, the “Cooling Sensation Score” value is 12.1 in the data set with panelists (150 ppm coolant in paste, rinse Ca+2 271 ppm, 0 min.); 22.5 in the data set on panelists (150 ppm coolant in paste, rinse Ca+2 271 ppm, 5 min.); 26.0 in the data set on panelists (150 ppm coolant in paste, rinse Ca+2 271 ppm, 15 min.); 17.1 with panelists (150 ppm coolant in paste, rinse Ca+2 271 ppm, 30 min.); 11.2 with panelists (150 ppm coolant in paste, rinse Ca+2 271 ppm, 45 min.); 0 in the data set with panelists (150 ppm coolant in paste, rinse Ca+2 271 ppm, 60 min.). Moreover, the “Cooling Sensation Score” value with panelists (150 ppm coolant in paste, rinse Ca+2 542 ppm, 0 min.) is reported as 15.1; with panelists (150 ppm coolant in paste, rinse Ca+2 542 ppm, 5 min.), 21.9; in the data set on panelists (150 ppm coolant in paste, rinse Ca+2 542 ppm, 15 min.) it was 27.2; in the data set with panelists (150 ppm coolant in paste, rinse Ca+2 542 ppm, 30 min.), 24.8; in the data set with panelists (150 ppm coolant in paste, rinse Ca+2 542 ppm, 45 min.) it was 18.2; in the data set on panelists (150 ppm coolant in paste, rinse Ca+2 542 ppm, 60 min.), 8.0. The “Potentiating effect of calcium ions on cooling intensity and duration” value in the data set with panelists (at the levels of coolant and calcium used) was “particularly evident”. Besides, in the data set with panelists (dentifrice followed by calcium rinse), the “Duration of cooling with calcium” value was “up to 60 minutes”. For the same compound, in the data set on panelists (particularly when used at higher levels), the “Sensation described by panelists” value is ““burning” sensation”.

For the compound `O=P([O-])([O-])OP(=O)([O-])OP(=O)([O-])[O-].[Na+].[Na+].[Na+].[Na+].[Na+]` [Penta sodium triphosphate], the “% Change from G-180 value” on human TRPM8 is 0.66%. Besides, the “Average Fluorescence (n = 3)” value at human TRPM8 (setting [2]) was 17628.02.

In the case of `CC(C)[C@@H]1CC[C@@H](C)C[C@@H]1O` [d-neomenthol], the Cooling threshold result in data set [1] was “about 25,000 ppb”.

For the compound `CCCCCCCCCCCCOP(=O)([O-])[O-].[Na+].[Na+]` [Sodium lauryl phosphate], the “% Change from G-180 value” at human TRPM8 is reported as 5.10%. In addition, the “Average Fluorescence (n = 3)” value on human TRPM8 (setting [2]) stood at 18404.83.

On to `CC1CCC(C(C)C)C(O)C1` (stereo not shown) [Menthol, menthol], for which the “Cooling Sensation Score” value with panelists (1500 ppm coolant in paste, rinse Ca+2 542 ppm, 0 min.) came to 18.0; in the data set on panelists (1500 ppm coolant in paste, rinse Ca+2 542 ppm, 5 min.), 17.5; in the data set on panelists (1500 ppm coolant in paste, rinse Ca+2 542 ppm, 15 min.) it was 4.4; with panelists (1500 ppm coolant in paste, rinse Ca+2 542 ppm, 30 min.) it was 0; in the data set on panelists (1500 ppm coolant in paste, rinse Ca+2 542 ppm, 45 min.), 0; in the data set with panelists (1500 ppm coolant in paste, rinse Ca+2 542 ppm, 60 min.), 0. Also, the “Calcium enhancing effect on cooling” value in the data set on panelists (1500 ppm level of coolant in dentifrice) is on record as “calcium enhancing effect was not observed”. Also, the Cooling threshold entry in data set [1] is listed as “about 800 ppb”.

As to `O=P(O)(O)OP(=O)(O)OP(=O)(O)O` [Sodium tripolyphosphate], the “% Change from G-180 value” on human TRPM8 was determined as 5.69%. Moreover, the “Average Fluorescence (n = 3)” value at human TRPM8 (setting [2]) turned out to be 18508.43.

Source of the values: patent publication US9918915B2, “Personal care compositions providing enhanced cooling sensation” (THE PROCTER & GAMBLE COMPANY, priority 2007, dated 2018).
